pIC50: −log10 of the molar value. Where a SMILES comes first, the peptide text is derived from it. Bridges are numbered along the chain shown (N, C = ends). [ ]: non-standard residue; d: D form. hPhe(3-Cl-4-CF3) = N[C@@H](CCc1ccc(C(F)(F)F)c(Cl)c1)C(=O)O; NPrPhe(4-CF3) = CCCN[C@@H](Cc1ccc(C(F)(F)F)cc1)C(=O)O; NMeGly(cPent) = CN[C@H](C(=O)O)C1CCCC1; Pro(4,4-F2) = O=C(O)[C@@H]1CC(F)(F)CN1; Hyp = O=C(O)[C@@H]1C[C@@H](O)CN1; NMeD = CN[C@@H](CC(=O)O)C(=O)O; NMeL = CN[C@@H](CC(C)C)C(=O)O; NMeA = CN[C@@H](C)C(=O)O; Ac5c = NC1(C(=O)O)CCCC1; Aze = O=C(O)[C@@H]1CCN1; Ac4c = NC1(C(=O)O)CCC1; Sar = CNCC(=O)O
Assays:
[1] = target: GDP-bound NRAS wild-type protein (Homo sapiens, UniProt P01111); experiment: Binding to NRAS by surface plasmon resonance (SPR), KD and KD ratio to KRAS; conditions: ratio of the KD value with respect to GDP-bound NRAS wild-type protein to the KD value with respect to KRAS
Method in brief: (§1)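 GDP-bound biotin-Avi RAS captured at ~100–300 RU, 30°C, pH 7.4 HBS containing 10 µM GDP, 10 mM MgCl2, 1 mM DTT, 0.01% Tween 20 and 4% DMSO. KD by 1:1 fitting.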

[2] = system: human lung cancer strain NCI-H441; format: cell-based
Method in brief: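 Readout: […] after the ATP-based reagent. Compound: serial dilutions in dimethyl sulfoxide.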

HRAS wild-type protein = HRAS wild-type protein (Homo sapiens, UniProt P01112); experiment: Binding to HRAS by surface plasmon resonance (SPR), KD and KD ratio to KRAS; conditions: ratio of the KD value with respect to HRAS wild-type protein to the KD value with respect to KRAS
Method in brief: as §1

Chain of HRAS wild-type protein (P01112 whole entry): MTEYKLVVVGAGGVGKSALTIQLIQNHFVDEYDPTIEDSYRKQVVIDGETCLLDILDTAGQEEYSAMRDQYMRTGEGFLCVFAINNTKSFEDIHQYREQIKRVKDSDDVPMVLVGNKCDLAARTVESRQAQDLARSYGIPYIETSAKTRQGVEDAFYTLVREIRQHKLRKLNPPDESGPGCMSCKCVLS
Chain of GDP-bound NRAS wild-type protein (P01111 whole entry): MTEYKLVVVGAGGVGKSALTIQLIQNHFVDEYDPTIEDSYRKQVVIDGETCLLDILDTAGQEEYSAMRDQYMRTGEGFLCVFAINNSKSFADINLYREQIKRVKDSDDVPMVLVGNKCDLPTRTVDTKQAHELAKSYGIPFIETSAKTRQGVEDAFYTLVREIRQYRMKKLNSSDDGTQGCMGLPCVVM

pIC50 [2]	SMILES	NRAS /KRAS [1]	HRAS /KRAS (HRAS wild-type protein)
9.00	CCCN1C(=O)[C@@H]2CCN2C(=O)[C@H](C)N(C)C(=O)[C@H]([C@@H](C)CC)NC(=O)[C@H](CC(C)C)N(C)C(=O)C[C@@H](C(=O)N(C)C)N(C)C(=O)[C@H](C2CCCC2)N(C)C(=O)C2(CCCC2)NC(=O)[C@@H]2C[C@@H](OCC)CN2C(=O)[C@H](CCc2ccc(C(F)(F)F)c(Cl)c2)NC(=O)CN(C)C(=O)[C@@H]1Cc1ccc(C(F)(F)F)cc1 [PP0438] ([NMeL]I[NMeA][Aze][NPrPhe(4-CF3)][Sar][hPhe(3-Cl-4-CF3)][Hyp](Et)[Ac5c][NMeGly(cPent)][NMeD]-NMe2; lactam N-11)	C (A compound having a KD ratio of 0.1 or more and less than 3 is denoted as C)	C (A compound having a KD ratio of 0.1 or more and less than 3 is denoted as C)
8.36	CCCN1C(=O)[C@@H]2CCN2C(=O)CN(C)C(=O)[C@H]([C@@H](C)CC)NC(=O)[C@H](CC(C)C)N(C)C(=O)C[C@@H](C(=O)N(C)C)N(C)C(=O)[C@H](C2CCCC2)N(C)C(=O)C2(CCCC2)NC(=O)[C@@H]2CCCN2C(=O)[C@H](CCc2ccc(C(F)(F)F)c(Cl)c2)NC(=O)CN(C)C(=O)[C@@H]1Cc1ccc(C(F)(F)F)cc1 [PP0440] ([NMeL]I[Sar][Aze][NPrPhe(4-CF3)][Sar][hPhe(3-Cl-4-CF3)]P[Ac5c][NMeGly(cPent)][NMeD]-NMe2; lactam N-11)	C (A compound having a KD ratio of 0.1 or more and less than 3 is denoted as C)	B (a compound having 3 or more and less than 10 is denoted as B)
9.10	CCCN1C(=O)[C@@H]2CCN2C(=O)CN(C)C(=O)[C@H]([C@@H](C)CC)NC(=O)[C@H](CC(C)C)N(C)C(=O)C[C@@H](C(=O)N(C)C)N(C)C(=O)[C@H](C2CCCC2)N(C)C(=O)C2(CCCC2)NC(=O)[C@@H]2CC(F)(F)CN2C(=O)[C@H](CCc2ccc(C(F)(F)F)c(Cl)c2)NC(=O)CN(C)C(=O)[C@@H]1Cc1ccc(C(F)(F)F)cc1 [PP0442] ([NMeL]I[Sar][Aze][NPrPhe(4-CF3)][Sar][hPhe(3-Cl-4-CF3)][Pro(4,4-F2)][Ac5c][NMeGly(cPent)][NMeD]-NMe2; lactam N-11)	C (A compound having a KD ratio of 0.1 or more and less than 3 is denoted as C)	C (A compound having a KD ratio of 0.1 or more and less than 3 is denoted as C)
8.77	CCCN1C(=O)[C@@H]2CCN2C(=O)CN(C)C(=O)[C@H]([C@@H](C)CC)NC(=O)[C@H](CC(C)C)N(C)C(=O)C[C@@H](C(=O)N(C)C)N(C)C(=O)[C@H](C2CCCC2)N(C)C(=O)C2(CCC2)NC(=O)[C@@H]2C[C@@H](OCC)CN2C(=O)[C@H](CCc2ccc(C(F)(F)F)c(Cl)c2)NC(=O)CN(C)C(=O)[C@@H]1Cc1ccc(C(F)(F)F)cc1 [PP0445] ([NMeL]I[Sar][Aze][NPrPhe(4-CF3)][Sar][hPhe(3-Cl-4-CF3)][Hyp](Et)[Ac4c][NMeGly(cPent)][NMeD]-NMe2; lactam N-11)	C (A compound having a KD ratio of 0.1 or more and less than 3 is denoted as C)	C (A compound having a KD ratio of 0.1 or more and less than 3 is denoted as C)

Further lines, the compound ahead of its results:

SMILES	pIC50 [2]	NRAS /KRAS [1]	HRAS /KRAS (HRAS wild-type protein)
CCCN1C(=O)[C@@H]2CCN2C(=O)[C@H](C)N(C)C(=O)[C@H]([C@@H](C)CC)NC(=O)[C@H](CC(C)C)N(C)C(=O)C[C@@H](C(=O)N(C)C)N(C)C(=O)[C@H](C2CCCC2)N(C)C(=O)C2(CCCC2)NC(=O)[C@@H]2CC(F)(F)CN2C(=O)[C@H](CCc2ccc(C(F)(F)F)c(Cl)c2)NC(=O)CN(C)C(=O)[C@@H]1Cc1ccc(C(F)(F)F)cc1 [PP0436] ([NMeL]I[NMeA][Aze][NPrPhe(4-CF3)][Sar][hPhe(3-Cl-4-CF3)][Pro(4,4-F2)][Ac5c][NMeGly(cPent)][NMeD]-NMe2; lactam N-11)	9.00	C (A compound having a KD ratio of 0.1 or more and less than 3 is denoted as C)	C (A compound having a KD ratio of 0.1 or more and less than 3 is denoted as C)
CCCN1C(=O)[C@@H]2CCN2C(=O)[C@H](C)N(C)C(=O)[C@H]([C@@H](C)CC)NC(=O)[C@H](CC(C)C)N(C)C(=O)C[C@@H](C(=O)N(C)C)N(C)C(=O)[C@H](C2CCCC2)N(C)C(=O)C2(CCC2)NC(=O)[C@@H]2CC(F)(F)CN2C(=O)[C@H](CCc2ccc(C(F)(F)F)c(Cl)c2)NC(=O)CN(C)C(=O)[C@@H]1Cc1ccc(C(F)(F)F)cc1 [PP0437] ([NMeL]I[NMeA][Aze][NPrPhe(4-CF3)][Sar][hPhe(3-Cl-4-CF3)][Pro(4,4-F2)][Ac4c][NMeGly(cPent)][NMeD]-NMe2; lactam N-11)	8.92	C (A compound having a KD ratio of 0.1 or more and less than 3 is denoted as C)	B (a compound having 3 or more and less than 10 is denoted as B)
CCCN1C(=O)[C@@H]2CCN2C(=O)CN(C)C(=O)[C@H]([C@@H](C)CC)NC(=O)[C@H](CC(C)C)N(C)C(=O)C[C@@H](C(=O)N(C)C)N(C)C(=O)[C@H](C2CCCC2)N(C)C(=O)C2(CCC2)NC(=O)[C@@H]2CCCN2C(=O)[C@H](CCc2ccc(C(F)(F)F)c(Cl)c2)NC(=O)CN(C)C(=O)[C@@H]1Cc1ccc(C(F)(F)F)cc1 [PP0441] ([NMeL]I[Sar][Aze][NPrPhe(4-CF3)][Sar][hPhe(3-Cl-4-CF3)]P[Ac4c][NMeGly(cPent)][NMeD]-NMe2; lactam N-11)	8.47	C (A compound having a KD ratio of 0.1 or more and less than 3 is denoted as C)	C (A compound having a KD ratio of 0.1 or more and less than 3 is denoted as C)
CCCN1C(=O)[C@@H]2CCN2C(=O)CN(C)C(=O)[C@H]([C@@H](C)CC)NC(=O)[C@H](CC(C)C)N(C)C(=O)C[C@@H](C(=O)N(C)C)N(C)C(=O)[C@H](C2CCCC2)N(C)C(=O)C2(CCC2)NC(=O)[C@@H]2CC(F)(F)CN2C(=O)[C@H](CCc2ccc(C(F)(F)F)c(Cl)c2)NC(=O)CN(C)C(=O)[C@@H]1Cc1ccc(C(F)(F)F)cc1 [PP0443] ([NMeL]I[Sar][Aze][NPrPhe(4-CF3)][Sar][hPhe(3-Cl-4-CF3)][Pro(4,4-F2)][Ac4c][NMeGly(cPent)][NMeD]-NMe2; lactam N-11)	9.05	C (A compound having a KD ratio of 0.1 or more and less than 3 is denoted as C)	C (A compound having a KD ratio of 0.1 or more and less than 3 is denoted as C)
CCCN1C(=O)[C@@H]2CCN2C(=O)CN(C)C(=O)[C@H]([C@@H](C)CC)NC(=O)[C@H](CC(C)C)N(C)C(=O)C[C@@H](C(=O)N(C)C)N(C)C(=O)[C@H](C2CCCC2)N(C)C(=O)C2(CCCC2)NC(=O)[C@@H]2C[C@@H](OCC)CN2C(=O)[C@H](CCc2ccc(C(F)(F)F)c(Cl)c2)NC(=O)CN(C)C(=O)[C@@H]1Cc1ccc(C(F)(F)F)cc1 [PP0444] ([NMeL]I[Sar][Aze][NPrPhe(4-CF3)][Sar][hPhe(3-Cl-4-CF3)][Hyp](Et)[Ac5c][NMeGly(cPent)][NMeD]-NMe2; lactam N-11)	8.85	C (A compound having a KD ratio of 0.1 or more and less than 3 is denoted as C)	C (A compound having a KD ratio of 0.1 or more and less than 3 is denoted as C)

Source: patent EP4603105A1, “PHARMACEUTICAL COMPOSITION CONTAINING CYCLIC COMPOUND HAVING SELECTIVE KRAS INHIBITORY EFFECT AGAINST HRAS AND NRAS” (CHUGAI SEIYAKU KABUSHIKI KAISHA, priority 2022, dated 2024)
